Marks after values point to notes of the source that are not given here.
What was measured:
DBA/1J mice [1] = experiment: Collagen-induced arthritis: incidence and severity; type: in vivo
Method: The effect of 5′-IMS in a murine model system of collagen-induced arthritis was studied. Male DBA/1J mice were injected intradermally on day 1 with 0.1 mL of an emulsion of bovine type II collagen plus complete Freunds's adjuvant (CFA). A second injection was administered on day 21. Treatment with 5′-IMS (100 or 200 mg/kg/day, BID) per gavage was begun on the day of the second collagen/CFA injection and continued throughout the study, which was terminated on day 45 (24 days after the second injection).
(§1) Mice were evaluated daily for arthritis by using a macroscopic scoring system ranging from 0-4 (0=no signs of arthritis, 1=swelling or redness of the paw or one digit, 2=two joints involved, 3=more than 2 joints involved, 4=severe arthritis of the entire paw). The arthritic index for each mouse was calculated by adding the four scores of the individual paws. […] At study termination, paws were removed from all animals in each treatment group and randomly assigned to MPO, MDA or chemokines/cytokine measurements.
Arthritis was induced in DBA/1J mice by two 100 μL sub-dermal injections of a 1:1 mixture of bovine collagen type II (1 mg/mL) and complete Freund's adjuvant (1 mg/mL) 21 days apart. Gavage treatment with 5′-IMS (100 or 200 mg/kg/day, BID) commenced on the day of the second injection. […] Statistical analysis was performed by Student's t-test or fisher's exact test as appropriate. […]

DBA/1J mice [2] = experiment: Collagen-induced arthritis: MPO and MDA levels in paws; type: in vivo; details: 100 or 200 mg/kg/day, BID, gavage; paws 24 days after second collagen injection
Method: as §1
(§2) The effect of 5′-IMS on the levels of MPO and MDA in paws of DBA/1J mice treated with subdermal injections of collagen to induce arthritis was studied. Gavage treatment with 5′-IMS (100 or 200 mg/kg/day, BID) commenced on the day of the second collagen injection and paws were taken 24 days later and homogenized for MPO and MDA measurements. Data are expressed as mean ±SEM from n=10 animals. […] Accordingly, 5′-IMS, an illustrative inosine compound, is useful for treating or preventing an inflammation disease, particularly arthritis, in a patient.

DSS mice [3] = experiment: DSS colitis, inosine versus 5′-IMS at 50, 100 and 300 μmoles/kg/day; type: in vivo; details: for protection against colonic shortening / protection against visible histological damage: 50, 100 and 300 μmoles/kg/day, vs vehicle treated DSS animals; for dose at which colonic MDA levels were reduced: first statement ('For example'); for dose at which MDA levels were reduced (second statement, 'Similarly'): second statement of b313
Description: The effect of various doses (50, 100 and 300 μmoles/kg/day) inosine and IMS on the outcome of DSS (dextran sodium sulfate) colitis in mice. Colonic length, gross histologic score, colonic MDA content and colonic MPO content have been determined. N=10 animals per experimental groups. *p<0.05 and **p<0.01 indicates significant improvements in drug treated DSS animals, when compared to vehicle treated DSS animals. Mean +SEM are presented, except for histological scores, which are presented as medians.
Significant improvements in 5′-IMS treated DSS animals was observed as compared to vehicle treated DSS animals. Mean ±SEM are shown, except for the histological scores, which are presented as medians.

DBA/1J mice [4] = experiment: Collagen-induced arthritis: chemokine and cytokine levels in paws; type: in vivo; details: 200 mg/kg/day gavage, 24 days after second collagen injection
Method: as §1
as §2, with “the chemokine MIP-1α” for “MPO”, “the cytokines 1L-12 and TNF-α” for “MDA”, “analysis. […]” for “MPO and MDA measurements.”

STZ diabetic mice = experiment: Streptozotocin-induced diabetes: blood glucose, diabetes incidence, pancreatic insulin content; type: in vivo
Method: The effect of inosine was in a […] model of streptozotocin-induced diabetes was examined. Mice were treated with streptozotocin (40 mg/kg in citrate buffer) or vehicle (citrate buffer) i.p. for 5 consecutive days to induce diabetes. Blood glucose was monitored over the following 21 days using a one-touch blood glucose meter (Lifescan). […] Hyperglycemia was defined as non-fasting blood glucose level higher than 200 mg/dL. Mice were treated simultaneously with streptozotocin injection throughout the 21 days of the experiments and with vehicle or inosine (100 mg/kg oral gavage, twice a day). Samples of pancreas were removed on day 21 and weighed before being placed into 6 mls of acid ethanol (23:7:0.45 ethanol:dH2O:HCl) and homogenized. The pancreas samples were incubated for 72 h at 4° C. before being centrifuged. The insulin content of the supernatant was then determined using an ELISA assay.
An “*” indicates significant reduction of circulating glucose or diabetes incidence in the inosine-treated streptozotocin rats when compared to vehicle-treated streptozotocin rats (p<0.05).
An “*” in TABLE 7 indicates significant decreases in insulin content in response to streptozotocin when compared to control, and a “#” indicates significant preservation of pancreatic insulin content in the inosine-treated streptozotocin rats (p<0.05). Pancreatic insulin content at 21 days in streptozotocin diabetic mice receiving vehicle or inosine treatment.

[5] = test system: peritoneal macrophages stimulated with LPS/IFN-γ; experiment: IL-12 and TNF production by stimulated peritoneal macrophages exposed to inosine; type: cell-based
Method: To determine the effect of inosine on inflammatory cytokine production, stimulated macrophages were exposed to inosine at 0 to 1000 μM, after which production of cytokines IL-12 and TNF was measured.

BALB/c mice = experiment: LPS-induced lethality (survival) in mice; type: in vivo; details: 100 mg/kg 30 min before 70 mg/kg i.p. LPS; 24-96 h; p<0.05 vs vehicle
Method: Because inosine skewed the cytokine response towards an anti-inflammatory profile, the ability of inosine to decrease LPS-induced lethality in a murine model system was investigated. BALB/c mice were pretreated with drug vehicle (physiologic saline) or 100 mg/kg inosine 30 min before the injection of 70 mg/kg of i.p. LPS. Survival was recorded at 24, 48, 72, and 96 h after the LPS injection. Results from the summary of two different experiments are shown. N=16 animals in each group. Inosine improved survival rate at 24-96 h (p<0.05). Therefore, inosine conferred significant protection in this endotoxemic model. Thus, inosine is useful for treating or preventing an inflammation disease or a reperfusion disease.

DSS mice [6] = experiment: DSS-induced inflammatory bowel disease model, inosine treatment; type: in vivo; details: 5% DSS 10 days, inosine 200 mg/kg/day orally
Method: The effect of inosine in a mouse model of inflammatory disease was examined. Inosine was administered (oral administration, 100 mg/kg, 2 times a day), in a mouse model of inflammatory bowel disease induced by dextran sulfate solution (DSS). This system is well-characterized and is considered a reliable model of inflammatory bowel disease. Efficacy of a pharmaceutical compound in this model is taken as evidence that the compound is likely to be effective in human beings (Sasaki et al., Scand. J. Immunol. 51:23-8,2000; Gaudio et al, Dig. Dis. Sci. 44:1458-75, 1999; Murthy et al., Aliment Pharmacol. Ther. 13:251-60, 1999; Kimura et al., Arzneimittelforschung 48:1091-96, 1998; Dieleman et al., Scand. J Gastroenterol. Suppl. 223:99-104, 1997).
Symptoms associated with the DSS model were induced as follows. Mice were patiented to a drinking water containing 5% DSS for 10 days, in the presence (n=10) or absence (n=10) of inosine treatment (200 mg/kg/day, orally). At the end of 10 days, animals were evaluated for the incidence of bloody diarrhea, for colon shortening, and colon histopathology. Colonic myeloperoxidase (MPO) and malondialdehyde (MDA) levels were measured. These parameters provide a good cross-section of the functional and inflammatory changes associated with the current model of inflammatory bowel disease.
Significant protective effect of inosine in the presence of DSS is indicated as *p<0.05, when compared to the values with DSS alone in the absence of inosine.

male BALB/c mice = experiment: Plasma cytokine levels after LPS challenge in endotoxemic mice; type: in vivo; details: 100 mg/kg i.p. 30 min before LPS 70 mg/kg i.p.
Method: To determine whether inosine inhibits inflammatory cytokine release in vivo, male BALB/c mice were injected with inosine (100 mg/kg; i.p.) followed 30 minutes later by an i.p. injection of LPS (70 mg/kg). Plasma levels of the different cytokines were measured at various times (90 mm 2 h, 4 h, and 8 h) after the LPS challenge.
The results are shown in FIGS. 1A-E. Data are mean ±SEM of n=8 mice. The asterisk in the figure indicates p<0.05. […] Inosine was also shown to augment IL-10 (FIG. 1E) production in endotoxemic mice. […] Inosine inhibits the production of proinflammatory cytokines, but also potentiates the formation of the anti-inflammatory IL-10. Accordingly, inosine is useful for treating or preventing an inflammation disease or a reperfusion disease.

[7] = day 0, inosine 100 mg/kg oral gavage twice a day

With `O=S(=O)(O)OC[C@H]1O[C@@H](n2cnc3c(O)ncnc32)[C@H](O)[C@@H]1O` [5′-IMS, inosine 5′-monosulfate] the severity of arthritis (DBA/1J mice [1]; 100 or 200 mg/kg/day, BID, gavage) was “significantly reduced”, the prevalence of arthritis (DBA/1J mice [1]; both dosing regimens (100 or 200 mg/kg/day, BID, gavage), day 24 post second collagen injection, reduced from 90%) was 25% and the “lipid peroxidation (reflected by MDA) in joints” value (DBA/1J mice [2]) was “profoundly reduced”. For the same molecule, the “neutrophil infiltration (reflected by MPO concentration) in joints” value (DBA/1J mice [2]) was “profoundly reduced”, the “protection against colonic shortening” value (DSS mice [3]) was “provided significant protection” and the “protection against visible histological damage” value (DSS mice [3]) was “provided significant protection”. The “dose at which colonic MDA levels were reduced” value (DSS mice [3]) was 50 µmol/kg/day, the “dose at which MDA levels were reduced (second statement, 'Similarly')” value (DSS mice [3]) was 50 µmol/kg/day and the “levels of MIP-1α in paws” value (DBA/1J mice [4]) was “significantly reduced”. For the same molecule, the “levels of TNF-α in paws” value (DBA/1J mice [4]) was “significantly reduced” and the “IL-12 levels in paws” value (DBA/1J mice [4]; p=0.09) was “tended to reduce”.

For `OC[C@H]1O[C@@H](n2cnc3c(O)ncnc32)[C@H](O)[C@@H]1O` [Inosine, inosine], the Pancreatic insulin content (STZ diabetic mice; 21 days, inosine treated, STZ vehicle 6 ± 1, control 68 ± 11) was 21 ± 4# ng insulin/mg protein, the “Diabetes Incidence” value (STZ diabetic mice; [7]) was 0% and the “Mean Blood Glucose” value (STZ diabetic mice; [7]) was 95 ± 4 mg/dL. For the same molecule, the “Median Blood Glucose” value (STZ diabetic mice; [7]) was 96 mg/dL, the “Diabetes Incidence” value (STZ diabetic mice; day 7, inosine 100 mg/kg oral gavage twice a day, STZ vehicle 8) was 0% and the “Mean Blood Glucose” value (STZ diabetic mice; day 7, inosine 100 mg/kg oral gavage twice a day, STZ vehicle 137 ± 7) was 112 ± 6* mg/dl. The “Median Blood Glucose” value (STZ diabetic mice; day 7, inosine 100 mg/kg oral gavage twice a day, STZ vehicle 146) was 117* mg/dl, the “Diabetes Incidence” value (STZ diabetic mice; day 21, inosine 100 mg/kg oral gavage twice a day, STZ vehicle 67) was 25* % and the “Mean Blood Glucose” value (STZ diabetic mice; day 21, inosine 100 mg/kg oral gavage twice a day, STZ vehicle 231 ± 15) was 152 ± 20* mg/dl. The “Median Blood Glucose” value (STZ diabetic mice; day 21, inosine 100 mg/kg oral gavage twice a day, STZ vehicle 260) was 130* mg/dl, the IL-12 ([5]; Inosine 10 μM, control 6.84 ± 0.39) was 5.9 ± 0.19 ng/mL and the TNF ([5]; Inosine 10 μM, control […] ± 1.89) was 10.08 ± 1.3 ng/mL. For the same molecule, the IL-12 ([5]; Inosine 30 μM) was 5.1 ± 0.14 ng/mL, the TNF ([5]; Inosine 30 μM) was 8.38 ± 0.14 ng/mL and the IL-12 ([5]; Inosine 100 μM) was 4.46 ± 0.62 ng/mL. It also gave a TNF ([5]; Inosine 100 μM) of 7.61 ± 0.33 ng/mL, an IL-12 ([5]; Inosine 300 μM) of 4.94 ± 0.06 ng/mL and a TNF ([5]; Inosine 300 μM) of 5.45 ± 0.52 ng/mL. For the same molecule, the IL-12 ([5]; Inosine 1000 μM) was 4.34 ± 0.39 ng/mL, the TNF ([5]; Inosine 1000 μM) was 5.62 ± 0.88 ng/mL and the survival rate (BALB/c mice) was “improved”. For the same molecule, the “Gut histological damage (1-4 scale)” value (DSS mice [6]; DSS alone 3.6 ± 0.4) was 1.2 ± 0.4*, the Gut malondialdehyde levels (DSS mice [6]; DSS alone 3.7 ± 0.8) was 2.1 ± 0.5* nmol/mg protein and the Colonic length (DSS mice [6]; DSS alone 4.2 ± 0.1, in cm (unit assumed)) was 5.1 ± 0.1*. The “Weight loss of the animals at 10 days” value (DSS mice [6]; DSS alone 20 ± 2) was 13 ± 1* %, the “Incidence of rectal bleeding” value (DSS mice [6]; DSS alone 90) was 20* % and the Gut myeloperoxidase levels (DSS mice [6]; DSS alone 296 ± 87) was 88 ± 14* nU/mg protein. The “protection against colonic shortening” value (DSS mice [3]) was “not”, the “protection against visible histological damage” value (DSS mice [3]) was “not” and the “dose at which colonic MDA levels were reduced” value (DSS mice [3]) was 100 µmol/kg/day. The “dose at which MDA levels were reduced (second statement, 'Similarly')” value (DSS mice [3]) was 300 µmol/kg/day, the “production of TNF-α (plasma)” value (male BALB/c mice; FIG. 1A) was “suppress” and the “production of IL-12 (plasma)” value (male BALB/c mice; FIG. 1B) was “suppress”. The “production of IFN-γ (plasma)” value (male BALB/c mice; FIG. 1C) was “suppress”, the “production of MIP-1α (plasma)” value (male BALB/c mice; FIG. 1D) was “suppress” and the “IL-10 production (plasma)” value (male BALB/c mice; FIG. 1E) was “augment”.
